Measured values published in the OligoGym collection.
Several values for one entry are separate records, joined by “and”; a condition that tells them apart may be missing. Equal values may be shown once. After the bases stand the sugars from the 5' end (letter, count) and the backbone: PS all phosphorothioate, else s phosphorothioate and o phosphodiester by linkage. Methylation of C is not given here. e = 2'-O-(2-methoxyethyl) (MOE); k = constrained ethyl (cEt); d = 2'-deoxy (DNA)

Target: IRF4
Details: ASO

Sequence | target mRNA inhibition (MM.1R, 1 µM) | target mRNA inhibition (SK-MEL-28, 4 µM) | other results
TAACGAGGTGCCTTAC (sugars k3 d10 k3, PS) | 13% |  | 
TAACTAAAACTGCATC (sugars k3 d10 k3, PS) |  | 10% | 
TAAGAAGCACTGGCAT (sugars k3 d10 k3, PS) |  | 26% | 
TAAGAGGCGACTGCTG (sugars k3 d10 k3, PS) |  | -45% | 
TAAGGAACAAGTGTAT (sugars k3 d10 k3, PS) |  | 18% | 
TAATCCACAATCAGCA (sugars k3 d10 k3, PS) | -27% |  | 
TAATTACTGCTTGAGG (sugars k3 d10 k3, PS) | 62% |  | target mRNA inhibition (MM.1R, 0.074 µM): 9%; target mRNA inhibition (MM.1R, 0.222 µM): 31%; target mRNA inhibition (MM.1R, 0.666 µM): 54%; target mRNA inhibition (MM.1R, 2 µM): 77%
TACAAAAACTTGGGTC (sugars k3 d10 k3, PS) |  | 9% | 
TACAAGCAGTCATCAC (sugars k3 d10 k3, PS) |  | 29% | 
TACAAGGTCTGAGTTG (sugars k3 d10 k3, PS) | -6% |  | 
TACACCTACACAGGCT (sugars k3 d10 k3, PS) |  | 19% | 
TACAGGCACGGCTTCA (sugars k3 d10 k3, PS) |  | 58% | 
TACCAACGACAGCATA (sugars k3 d10 k3, PS) |  | 61% | 
TACCAGCTCAATAATC (sugars k3 d10 k3, PS) | -27% |  | 
TACCTACAAGCAGTCA (sugars k3 d10 k3, PS) |  | 56% | 
TACGAGCACATGTCAA (sugars k3 d10 k3, PS) |  | 36% | 
TACGCTTATTTTTCCA (sugars k3 d10 k3, PS) | 51% and 56% |  | target mRNA inhibition (MM.1R, 0.0625 µM): 1% and 12%; target mRNA inhibition (MM.1R, 0.25 µM): 29% and 44%; target mRNA inhibition (MM.1R, 4 µM): 65% and 77%
TACTCTTAGGCACATC (sugars k3 d10 k3, PS) |  | 59% | 
TACTGCTTGAGGTTTT (sugars k2 d9 e3 k2, PS) | 10% |  | 
TACTGCTTGAGGTTTT (sugars k3 d9 k3 e1, PS) | 13% |  | 
TACTGCTTGAGGTTTT (sugars kkdddddddddkdkdk, PS) | 15% |  | 
TACTGCTTGAGGTTTT (sugars kkkdddddddddkeke, PS) | 7% |  | 
TACTGCTTGAGGTTTT (sugars kkkddddddddkekek, PS) | -8% |  | 
TACTGTTACCGATGCT (sugars kkddddddddddkeke, PS) | 24% and 17% |  | 
TACTTAAGCAAGTGGA (sugars k3 d10 k3, PS) |  | 75% and 71% | 
TAGAATGAGAGGTGTC (sugars k3 d10 k3, PS) |  | 29% | 

Sequence | target mRNA inhibition (MM.1R, 1 µM) | target mRNA inhibition (SK-MEL-28, 4 µM) | other results
TAGAATGCATAACACG (sugars k3 d10 k3, PS) | 8% |  | 
TAGACTGACAGCCGAA (sugars k3 d10 k3, PS) | 3% |  | 
TAGCATCAGAGCTAGA (sugars k3 d10 k3, PS) |  | 49% | 
TAGCATGTATGCATTC (sugars k3 d10 k3, PS) |  | 52% | 
TAGCCAATTCCTCCAC (sugars k3 d10 k3, PS) | 1% |  | 
TAGGAGTGTAACTGAG (sugars k3 d10 k3, PS) |  | 37% | 
TAGGGATACAGCAGGC (sugars k3 d10 k3, PS) |  | 73% | 
TAGGTATACTTAAGCA (sugars k3 d10 k3, PS) |  | 79% | 
TAGTATGAGAAACGGC (sugars kddddddddddkekek, PS) | 24% |  | 
TAGTATGAGAAACGGC (sugars kkddddddddddkeke, PS) | 46% |  | 
TAGTATGAGAAACGGC (sugars kkdddddddddekeke, PS) | 50% |  | 
TAGTATGAGAAACGGC (sugars kkdddddddddkdkdk, PS) | 39% |  | 
TAGTATGAGAAACGGC (sugars kkkddddddddkekek, PS) | 30% |  | 
TAGTGTTCCAGGAGAT (sugars k3 d10 k3, PS) | 53% |  | target mRNA inhibition (MM.1R, 0.074 µM): 15%; target mRNA inhibition (MM.1R, 0.222 µM): 29%; target mRNA inhibition (MM.1R, 0.666 µM): 52%; target mRNA inhibition (MM.1R, 2 µM): 80%
TAGTTAAGTACTTGGA (sugars k3 d10 k3, PS) |  | 56% | 
TAGTTTAAGGGTTACG (sugars k3 d10 k3, PS) |  | 49% | 
TATACTTAAGCAAGTG (sugars k3 d10 k3, PS) |  | 47% | 
TATAGAGCATCACTAT (sugars k3 d10 k3, PS) |  | 41% | 
TATAGTAGGTAAGATC (sugars k3 d10 k3, PS) |  | 13% | 
TATATGACGACTTAAG (sugars k3 d10 k3, PS) |  | 30% | 
TATTACCATGCATAGT (sugars k3 d10 k3, PS) |  | 30% | 
TCAAAAGTCTTAAGGG (sugars k3 d10 k3, PS) |  | 7% | 
TCAAACACTAATACCT (sugars k3 d10 k3, PS) |  | 25% | 
TCAAACCCTACTGGGT (sugars k3 d10 k3, PS) |  | 8% | 
TCAAAGTCATTGCTCT (sugars k3 d10 k3, PS) |  | 21% | 
